14 compounds from ChEMBL document CHEMBL1142326, “2-Amino-N-pyrimidin-4-ylacetamides as A2A receptor antagonists: 1. Structure-activity relationships and optimization of heterocyclic substituents” (J Med Chem, 2008) can be followed below.

Experiment [1] deals with T1, Adenosine receptor A2a (Homo sapiens, UniProt P29274). Put plainly: Displacement of [3H]ZM241385 from human adenosine A2A receptor expressed in HEK293 cells. The format is cell-based.
The target of experiment [2] is T2, Adenosine receptor A1 (Homo sapiens, UniProt P30542).
T2 sequence (P30542 whole entry): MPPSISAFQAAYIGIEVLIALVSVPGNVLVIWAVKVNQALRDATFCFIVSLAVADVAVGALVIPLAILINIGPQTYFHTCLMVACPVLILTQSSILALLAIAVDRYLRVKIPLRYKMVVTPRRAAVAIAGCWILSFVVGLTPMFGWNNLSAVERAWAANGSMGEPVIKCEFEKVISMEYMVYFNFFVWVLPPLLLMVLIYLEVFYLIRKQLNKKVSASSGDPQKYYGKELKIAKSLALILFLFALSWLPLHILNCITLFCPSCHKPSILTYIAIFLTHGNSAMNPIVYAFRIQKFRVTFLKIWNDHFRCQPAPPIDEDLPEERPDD
Put plainly: Displacement of [3H]DPCPX from human adenosine A1 receptor expressed in HEK293 cells. The format is cell-based.

Experiment [3] has as its target Cytochrome P450 3A4 (Homo sapiens, UniProt P08684). The experiment in a line: Inhibition of CYP3A4. The format is ADME.
For experiment [4], the target named is T1, Adenosine receptor A2a. Put plainly: Antagonist activity at human adenosine A2A receptor by cAMP assay. The class given is functional. On the technique in general: Cyclic AMP is a second messenger, typically raised through Gs and lowered through Gi signalling.

One may read the Ki as a dissociation constant, usually derived from enzyme kinetics or from competition with a known ligand. A high value points to lower affinity. Usually IC50 stands for the concentration that gives 50% inhibition. Lower therefore signals inhibition by little substance.

T1 sequence (P29274 whole entry): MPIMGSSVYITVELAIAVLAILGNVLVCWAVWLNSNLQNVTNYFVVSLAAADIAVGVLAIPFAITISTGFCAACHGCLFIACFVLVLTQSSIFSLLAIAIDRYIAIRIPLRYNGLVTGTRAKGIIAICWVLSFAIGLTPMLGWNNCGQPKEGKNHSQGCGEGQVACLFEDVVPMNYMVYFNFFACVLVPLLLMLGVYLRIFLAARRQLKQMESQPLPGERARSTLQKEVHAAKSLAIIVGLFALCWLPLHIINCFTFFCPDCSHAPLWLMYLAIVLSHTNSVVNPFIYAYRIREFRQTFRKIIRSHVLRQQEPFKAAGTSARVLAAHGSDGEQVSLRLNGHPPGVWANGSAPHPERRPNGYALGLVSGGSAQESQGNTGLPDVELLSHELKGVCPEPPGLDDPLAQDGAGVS
Cytochrome P450 3A4, sequence (P08684 whole entry): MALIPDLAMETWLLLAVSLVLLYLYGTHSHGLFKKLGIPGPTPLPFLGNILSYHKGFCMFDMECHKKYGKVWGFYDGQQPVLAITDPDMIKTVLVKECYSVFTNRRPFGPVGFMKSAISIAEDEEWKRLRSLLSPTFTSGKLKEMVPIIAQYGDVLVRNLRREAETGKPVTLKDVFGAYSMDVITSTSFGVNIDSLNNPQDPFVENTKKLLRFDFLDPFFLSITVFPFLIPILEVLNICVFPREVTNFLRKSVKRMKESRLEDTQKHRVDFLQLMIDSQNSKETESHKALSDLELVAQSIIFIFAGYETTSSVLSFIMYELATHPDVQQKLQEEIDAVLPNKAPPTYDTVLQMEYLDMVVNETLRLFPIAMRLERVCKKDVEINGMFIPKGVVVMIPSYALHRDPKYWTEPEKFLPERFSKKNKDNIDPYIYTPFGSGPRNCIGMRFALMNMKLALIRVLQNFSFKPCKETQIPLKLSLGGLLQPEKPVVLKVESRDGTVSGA

Turning to `CN1CCN(CC(=O)Nc2cc(-n3cccn3)nc(-c3nccs3)n2)CC1`, the inhibition constant Ki was 17 nM in experiment [1] and 850 nM in experiment [2].
On to `Cc1ccc(-c2nc(NC(=O)CN3CCN(C)CC3)cc(-n3nccc3C)n2)o1`, for which the Ki came to 14 nM in experiment [1] and 390 nM in experiment [2].
On to `Cc1cc(C)n(-c2cc(NC(=O)CN3CCN(C)CC3)nc(-c3nccs3)n2)n1`, for which the Ki in experiment [1] was found to be 9 nM; in experiment [2], 2000 nM. The IC50 in experiment [3] is 13 µM.
With `Cc1cc(C)n(-c2nc(NC(=O)CN3CCN(C)CC3)cc(-c3ocnc3C)n2)n1`, the Ki was 190 nM in experiment [1] and greater than 10000 nM in experiment [2].
`CN1CCN(CC(=O)Nc2cc(-n3cccn3)nc(-c3ccccn3)n2)CC1`: the Ki in experiment [1] is 53.4 nM; in experiment [2], 930 nM.
Take `Cc1cc(C)n(-c2nc(NC(=O)CN3CCN(C)CC3)cc(-c3cnco3)n2)n1`: the Ki was 1000 nM in experiment [1] and greater than 10000 nM in experiment [2].
For `Cc1cc(C)n(-c2nc(NC(=O)CN3CCN(C)CC3)cc(-c3nccs3)n2)n1`, the Ki in experiment [1] was found to be 27 nM; in experiment [2], 1700 nM.
`CN1CCN(CC(=O)Nc2cc(-n3cccn3)nc(-n3cccn3)n2)CC1`: the Ki in experiment [1] is 131 nM; in experiment [2] it was 4200 nM.
On to `CN1CCN(CC(=O)Nc2cc(-c3ccccn3)nc(-c3cccs3)n2)CC1`, for which the inhibition constant (Ki) in experiment [1] is 24 nM; in experiment [2], 389 nM.
On to `Cc1cc(C)n(-c2cc(NC(=O)CN3CCN(C)CC3)nc(-c3ccccn3)n2)n1`, for which the figures for the inhibition constant Ki in experiment [1] and in experiment [2] were 25.5 nM and 4400 nM, respectively.
Consider `CN1CCN(CC(=O)Nc2cc(-c3nccs3)nc(-c3ccco3)n2)CC1`, for which the IC50 in experiment [4] was found to be 103 nM. This lies in the sub-micromolar range.
On to `Cc1ccc(-c2nc(NC(=O)CN3CCN(C)CC3)cc(-c3nccs3)n2)o1`, for which the Ki in experiment [1] is 51 nM; in experiment [2], 720 nM.
Take `Cc1ccc(-c2nc(NC(=O)CN3CCN(C)CC3)cc(-n3cccn3)n2)o1`: the figures for the Ki in experiment [1] and in experiment [2] were 135 nM and 850 nM, respectively.
Turning to `Cc1cc(C)n(-c2cc(NC(=O)CN3CCN(C)CC3)nc(-c3ccc(C)o3)n2)n1`, the inhibitory constant (Ki) in experiment [1] came to 12 nM; in experiment [2], 850 nM.
